Values quoted from earlier work in US11268059B2, “Apparatuses, systems, and methods for culturing cells” (eXo Cell, LLC, priority 2015, dated 2022).

Legend:
BAT = settings: humans
[1] = system: isolated adipocytes and differentiated adipocytes (diffAds)
ex vivo human adipocytes = settings: Ang II stimulation
[2] = system: obese, diabetic yellow KK mice

In the case of `Nc1nc(CC(=O)Nc2ccc(CCNC[C@H](O)c3ccccc3)cc2)cs1` [migrabegron], the BAT activation (BAT) is listed as “activates BAT”.
For “angiotensin II (DRVYIHPF; Angiotensin-2; UniProt P01019 25-32, looked up) [Ang II, angiotensin II, component of the renin-angiotensin system]”, the adipogenesis [1] is listed as “may induce adipogenesis” and the lipolysis (ex vivo human adipocytes) is listed as “inhibited lipolysis”.
For `O=S(=O)(Nc1ccc(CCNC[C@H](O)c2cccnc2)cc1)c1ccc(-c2nc(-c3ccc(C(F)(F)F)cc3)cs2)cc1` [L-796568], the anti-obesity effects (obese human males) is given as “did not generate notable anti-obesity effects” and the energy expenditure (obese human males) is given as “improved energy expenditure”.
In the case of `C[C@H](Cc1ccc2c(c1)OC(C(=O)[O-])(C(=O)[O-])O2)NC[C@H](O)c1cccc(Cl)c1.[Na+].[Na+]` [CL-316243], the effect on obesity [2] is listed as “ameliorated obesity”.
